Measured values taken from ChEMBL document CHEMBL3272271, “Folate antagonists. 13. 2,4-Diamino-6-](alpha,alpha,alpha-trifluoro-m-tolyl)thio]quinazoline and related 2,4-diamino-6-[(phenyl- and naphthyl)thio]quinazolines, a unique class of antimetabolites with extraordinary antimalarial and antibacterial effects” (J Med Chem, 1978).
In brackets after ≈: the same amount, converted by molar mass. Activity calls are given as the source filed them. The rule behind the calls is not given here.

Experiments:
[1] = system: Staphylococcus aureus; assay: Antibacterial activity against Staphylococcus aureus UC-96 by gradient plate test; assay type: functional
[2] = system: Staphylococcus aureus; assay: Antibacterial activity against drug-resistant Staphylococcus aureus S18713 by gradient plate test; assay type: functional
[3] = system: Plasmodium gallinaceum; assay: Antimalarial activity against sporozoite-induced Plasmodium gallinaceum infected in white leghorn chicken assessed as disease cure from parasite infection at 80 mg/kg, sc administered 72 hrs after infection; assay type: functional, organism-based; design: dose 80 mg/kg
[4] = system: Plasmodium gallinaceum; assay: Antimalarial activity against sporozoite-induced Plasmodium gallinaceum infected in white leghorn chicken assessed as increase in mean survival days of host at 20 mg/kg, sc administered 72 hrs after infection relative to control; assay type: functional; conditions: route subcutaneous
[5] = system: Enterococcus faecalis; assay: Antibacterial activity against Streptococcus faecalis MGH-2 by gradient plate test; assay type: functional
[6] = system: Plasmodium gallinaceum; assay: Antimalarial activity against sporozoite-induced Plasmodium gallinaceum infected in white leghorn chicken assessed as increase in mean survival days of host at 5 mg/kg, sc administered 72 hrs after infection relative to control; assay type: functional; conditions: route subcutaneous
[7] = system: Plasmodium berghei; assay: Antimalarial activity against Plasmodium berghei infected in mouse assessed as increase in mean survival days of host at 20 mg/kg, sc administered 72 hrs after infection relative to control; assay type: functional; conditions: route subcutaneous
[8] = system: Plasmodium berghei; assay: Antimalarial activity against Plasmodium berghei infected in mouse assessed as disease cure from parasite infection at 160 mg/kg, sc administered 72 hrs after infection; assay type: functional, organism-based; design: dose 160 mg/kg
[9] = system: Plasmodium gallinaceum; assay: Antimalarial activity against sporozoite-induced Plasmodium gallinaceum infected in white leghorn chicken assessed as disease cure from parasite infection at 320 mg/kg, sc administered 72 hrs after infection; assay type: functional, organism-based; design: dose 320 mg/kg
[10] = system: Plasmodium gallinaceum; assay: Antimalarial activity against trophozoite-induced Plasmodium gallinaceum infected in white leghorn chicken assessed as increase in mean survival days of host at 0.63 mg/kg, sc administered 72 hrs after infection relative to control; assay type: functional; conditions: route subcutaneous
[11] = system: Plasmodium gallinaceum; assay: Antimalarial activity against sporozoite-induced Plasmodium gallinaceum infected in white leghorn chicken assessed as increase in mean survival days of host at 40 mg/kg, sc administered 72 hrs after infection relative to control; assay type: functional; conditions: route subcutaneous
[12] = system: Plasmodium gallinaceum; assay: Antimalarial activity against trophozoite-induced Plasmodium gallinaceum infected in white leghorn chicken assessed as increase in mean survival days of host at 20 mg/kg, sc administered 72 hrs after infection relative to control; assay type: functional; conditions: route subcutaneous
[13] = system: Gallus gallus; assay: Toxicity in sporozoite-induced Plasmodium gallinaceum infected white leghorn chicken assessed as mortality at 80 mg/kg, sc administered 72 hrs after infection measured up to 6 days; assay type: organism-based; design: dose 80 mg/kg, route subcutaneous; conditions: in vivo
[14] = system: Mus musculus; assay: Toxicity in Plasmodium berghei infected mouse assessed as mortality at 640 mg/kg, sc administered 72 hrs after infection measured after 2 to 5 days; assay type: organism-based; design: dose 640 mg/kg, route subcutaneous; conditions: in vivo
[15] = system: Plasmodium berghei; assay: Ratio of quinine hydrochloride SD90 to compound SD90 for trophozoite-induced Plasmodium berghei infected in mouse assessed as daily dose required to suppression of 90% parasite infection administered with diet for 6 days; assay type: functional
[16] = system: Shigella sonnei; assay: Antibacterial activity against Shigella sonnei C-10 by gradient plate test; assay type: functional
[17] = system: Plasmodium berghei; assay: Antimalarial activity against Plasmodium berghei infected in mouse assessed as increase in mean survival days of host at 40 mg/kg, sc administered 72 hrs after infection relative to control; assay type: functional; conditions: route subcutaneous
[18] = system: Plasmodium gallinaceum; assay: Antimalarial activity against trophozoite-induced Plasmodium gallinaceum infected in white leghorn chicken assessed as increase in mean survival days of host at 160 mg/kg, sc administered 72 hrs after infection relative to control; assay type: functional; conditions: route subcutaneous
[19] = system: Plasmodium gallinaceum; assay: Antimalarial activity against trophozoite-induced Plasmodium gallinaceum infected in white leghorn chicken assessed as increase in mean survival days of host at 2.5 mg/kg, sc administered 72 hrs after infection relative to control; assay type: functional; conditions: route subcutaneous
[20] = system: Plasmodium berghei; assay: Antimalarial activity against Plasmodium berghei infected in mouse assessed as increase in mean survival days of host at 10 mg/kg, sc administered 72 hrs after infection relative to control; assay type: functional; conditions: route subcutaneous
[21] = system: Plasmodium gallinaceum; assay: Antimalarial activity against trophozoite-induced Plasmodium gallinaceum infected in white leghorn chicken assessed as disease cure from parasite infection at 160 mg/kg, sc administered 72 hrs after infection; assay type: functional, organism-based; design: dose 160 mg/kg
[22] = system: Plasmodium berghei; assay: Antimalarial activity against trophozoite-induced Plasmodium berghei infected in mouse assessed as daily dose required to suppression of 90% parasite infection administered with diet for 6 days; assay type: functional
[23] = system: Plasmodium berghei; assay: Antimalarial activity against Plasmodium berghei infected in mouse assessed as increase in mean survival days of host at 80 mg/kg, sc administered 72 hrs after infection relative to control; assay type: functional; conditions: route subcutaneous
[24] = system: Gallus gallus; assay: Toxicity in trophozoite-induced Plasmodium gallinaceum infected white leghorn chicken assessed as mortality at 320 mg/kg, sc administered 72 hrs after infection measured after 48 hrs; assay type: organism-based; design: dose 320 mg/kg, route subcutaneous; conditions: in vivo
[25] = system: Plasmodium gallinaceum; assay: Antimalarial activity against sporozoite-induced Plasmodium gallinaceum infected in white leghorn chicken assessed as disease cure from parasite infection at 20 mg/kg, sc administered 72 hrs after infection; assay type: functional, organism-based; design: dose 20 mg/kg
[26] = system: Plasmodium berghei; assay: Antimalarial activity against Plasmodium berghei infected in mouse assessed as disease cure from parasite infection at 640 mg/kg, sc administered 72 hrs after infection; assay type: functional, organism-based; design: dose 640 mg/kg
[27] = system: Plasmodium gallinaceum; assay: Antimalarial activity against trophozoite-induced Plasmodium gallinaceum infected in white leghorn chicken assessed as increase in mean survival days of host at 40 mg/kg, sc administered 72 hrs after infection relative to control; assay type: functional; conditions: route subcutaneous
[28] = system: Plasmodium berghei; assay: Antimalarial activity against Plasmodium berghei infected in mouse assessed as increase in mean survival days of host at 160 mg/kg, sc administered 72 hrs after infection relative to control; assay type: functional; conditions: route subcutaneous
[29] = system: Plasmodium gallinaceum; assay: Antimalarial activity against trophozoite-induced Plasmodium gallinaceum infected in white leghorn chicken assessed as increase in mean survival days of host at 10 mg/kg, sc administered 72 hrs after infection relative to control; assay type: functional; conditions: route subcutaneous
[30] = system: Plasmodium gallinaceum; assay: Antimalarial activity against trophozoite-induced Plasmodium gallinaceum infected in white leghorn chicken assessed as increase in mean survival days of host at 80 mg/kg, sc administered 72 hrs after infection relative to control; assay type: functional; conditions: route subcutaneous
[31] = system: Plasmodium gallinaceum; assay: Antimalarial activity against sporozoite-induced Plasmodium gallinaceum infected in white leghorn chicken assessed as increase in mean survival days of host at 80 mg/kg, sc administered 72 hrs after infection relative to control; assay type: functional; conditions: route subcutaneous
[32] = system: Plasmodium gallinaceum; assay: Antimalarial activity against trophozoite-induced Plasmodium gallinaceum infected in white leghorn chicken assessed as increase in mean survival days of host at 1.25 mg/kg, sc administered 72 hrs after infection relative to control; assay type: functional; conditions: route subcutaneous
[33] = system: Escherichia coli; assay: Antibacterial activity against Escherichia coli Vogel by gradient plate test; assay type: functional
[34] = system: Plasmodium gallinaceum; assay: Antimalarial activity against trophozoite-induced Plasmodium gallinaceum infected in white leghorn chicken assessed as increase in mean survival days of host at 5 mg/kg, sc administered 72 hrs after infection relative to control; assay type: functional; conditions: route subcutaneous
[35] = system: Plasmodium gallinaceum; assay: Antimalarial activity against sporozoite-induced Plasmodium gallinaceum infected in white leghorn chicken assessed as disease cure from parasite infection at 160 mg/kg, sc administered 72 hrs after infection; assay type: functional, organism-based; design: dose 160 mg/kg
[36] = system: Plasmodium berghei; assay: Antimalarial activity against Plasmodium berghei infected in mouse assessed as disease cure from parasite infection at 320 mg/kg, sc administered 72 hrs after infection; assay type: functional, organism-based; design: dose 320 mg/kg
[37] = system: Gallus gallus; assay: Toxicity in sporozoite-induced Plasmodium gallinaceum infected white leghorn chicken assessed as mortality at 320 mg/kg, sc administered 72 hrs after infection measured up to 6 days; assay type: organism-based; design: dose 320 mg/kg, route subcutaneous; conditions: in vivo
[38] = system: Plasmodium gallinaceum; assay: Antimalarial activity against sporozoite-induced Plasmodium gallinaceum infected in white leghorn chicken assessed as disease cure from parasite infection at 40 mg/kg, sc administered 72 hrs after infection; assay type: functional, organism-based; design: dose 40 mg/kg
[39] = system: Pseudomonas aeruginosa; assay: Antibacterial activity against Pseudomonas aeruginosa 28 by gradient plate test; assay type: functional
[40] = system: Gallus gallus; assay: Toxicity in sporozoite-induced Plasmodium gallinaceum infected white leghorn chicken assessed as mortality at 160 mg/kg, sc administered 72 hrs after infection measured up to 6 days; assay type: organism-based; design: dose 160 mg/kg, route subcutaneous; conditions: in vivo
[41] = system: Plasmodium gallinaceum; assay: Antimalarial activity against sporozoite-induced Plasmodium gallinaceum infected in white leghorn chicken assessed as increase in mean survival days of host at 10 mg/kg, sc administered 72 hrs after infection relative to control; assay type: functional; conditions: route subcutaneous

SMILES: Cc1cccc(Sc2ccc3nc(N)nc(N)c3c2)c1
- MIC [1]: < 0.25 µg/mL
- MIC [2]: < 0.25 µg/mL
- Activity [3]: Active
- MST [4]: 3.8 days
- MIC [5]: < 0.25 µg/mL
- MST [6]: 0.3 days
- MST [7]: 2.3 days
- Activity [8]: Active
- Activity [9]: Active
- MST [10]: 0 days
- MST [11]: 1.7 days
- MST [12]: 6.2 days
- Activity [13]: Toxic
- Activity [14]: Toxic
- Ratio [15]: 12
- MIC [16]: 1.5 µg/mL (≈ 5.31 µM)
- MST [17]: 6.7 days
- MST [18]: 10.7 days
- MST [19]: 0 days
- MST [20]: 2.4 days
- Activity [21]: Active
- SD90 [22]: 6.2 mg/kg/day
- MST [23]: 7.7 days
- Activity [24]: Toxic
- Activity [25]: Active
- Activity [26]: Active
- MST [27]: 6.4 days
- MST [28]: 12.7 days
- MST [29]: 6 days
- MST [30]: 7.8 days
- MST [31]: 4.7 days
- MST [32]: 0 days
- MIC [33]: < 0.25 µg/mL
- MST [34]: 0 days
- Activity [35]: Active
- Activity [36]: Active
- Activity [37]: Toxic
- Activity [38]: Active
- MIC [39]: > 25 µg/mL
- Activity [40]: Toxic
- MST [41]: 1.8 days
